Patent US20170253601A1, “Substituted Pyrrolidine Compounds” (EPIZYME, INC., priority 2014, published 2017)

What follows are compounds tested against T1, SMYD2 (Homo sapiens, UniProt Q9NRG4) (assay: SMYD2 Biochemical Assay (3H-SAM, biotinylated peptide substrate, Flashplate)). Conditions: Table 1; average of n = 1 to n = 50; read-out: SMYD2 Biochem IC50.
T1 construct: Full length SMYD2 (NP 064582.2) was cloned; His6 (N, cleaved yes); FLAG (N); made in house; host or cells: Sf9 insect cells
Summary of the method: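 Methyltransferase activity tracked as 3H transfer from 10 nM 3H-SAM to 60 nM biotinylated peptide, counted after streptavidin Flashplate capture and normalised to DMSO and 1000 uM SAH controls. Enzyme: 1.5 nM full-length Sf9-expressed SMYD2, 30 min compound pre-incubation at room temperature, in Bicine pH 7.6 buffer with 2% DMSO; reactions quenched with 600 uM unlabelled SAM; IC50 from 3- or 4-parameter fit.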

T1 sequence (Q9NRG4 whole entry): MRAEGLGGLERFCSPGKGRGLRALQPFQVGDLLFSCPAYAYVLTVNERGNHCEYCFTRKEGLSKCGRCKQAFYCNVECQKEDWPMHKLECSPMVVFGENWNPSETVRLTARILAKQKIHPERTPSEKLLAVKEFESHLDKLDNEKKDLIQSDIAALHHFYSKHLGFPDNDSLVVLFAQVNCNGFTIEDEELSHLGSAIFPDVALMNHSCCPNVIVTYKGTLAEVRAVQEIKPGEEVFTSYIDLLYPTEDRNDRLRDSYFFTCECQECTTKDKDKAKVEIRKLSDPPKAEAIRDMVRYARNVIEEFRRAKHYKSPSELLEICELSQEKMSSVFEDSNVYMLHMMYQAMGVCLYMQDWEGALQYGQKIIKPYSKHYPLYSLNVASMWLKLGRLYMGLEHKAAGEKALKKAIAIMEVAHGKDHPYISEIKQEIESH

SMILES | IC50 [µM]
CN1C[C@H](NC(=O)c2cc(C3CC3)on2)[C@H](c2ccccc2)C1 (racemic) [compound 17, (±)-cis-5-cyclopropyl-N-((1-methyl-4-phenylpyrrolidin-3-yl)isoxazole-3-carboxamide] | > 50
CN1C[C@H](NC(=O)c2cc(C3CC3)on2)[C@@H](c2ccccc2)C1 (racemic) [compound 18, (±)-trans-5-cyclopropyl-N-(1-methyl-4-phenylpyrrolidin-3-yl)isoxazole-3-carboxamide] | > 50
C[C@@H]1C[C@H](NC(=O)c2cc(C3CC3)on2)C(=O)N1c1cnn(C)c1 (racemic) [compound 19, (±)-cis-5-cyclopropyl-N-(5-methyl-1-(1-methyl-1H-pyrazol-4-yl)-2-oxopyrrolidin-3-yl)isoxazole-3-carboxamide] | > 50
C[C@H]1C[C@H](NC(=O)c2cc(C3CC3)on2)C(=O)N1c1cnn(C)c1 (racemic) [compound 20, (±)-trans 5-cyclopropyl-N-(5-methyl-1-(1-methyl-1H-pyrazol-4-yl)-2-oxopyrrolidin-3-yl)isoxazole-3-carboxamide] | > 50
CC(=O)Nc1ccc(S(=O)(=O)N2CC[C@H](NC(=O)c3cc(C4CC4)on3)C2)cc1 [compound 1, (S)-N-(1-((4-acetamido-phenyl)sulfonyl)pyrrolidin-3-yl)-5-cyclopropyl-isoxazole-3-carboxamide] | > 50
CC(=O)Nc1ccc(S(=O)(=O)N2CC[C@@H](NC(=O)c3cc(C4CC4)on3)C2)cc1 [compound 2, (R)-N-(1-((4-acetamido-phenyl)sulfonyl)pyrrolidin-3-yl)-5-cyclopropyl-isoxazole-3-carboxamide] | > 50
O=C(N[C@H]1CCNC1)c1cc(C2CC2)on1 [compound 3, (S)-5-cyclopropyl-N-(pyrrolidin-3-yl)isoxazole-3-carboxamide] | 48.6
O=C(N[C@@H]1CCNC1)c1cc(C2CC2)on1 [compound 4, (R)-5-cyclopropyl-N-(pyrrolidin-3-yl)isoxazole-3-carboxamide] | > 50
CN1CCC(NC(=O)c2cc(C3CC3)on2)C1c1ccccc1 (centres unmarked) [compound 5, 5-cyclopropyl-N-(1-methyl-2-phenyl-pyrrolidin-3-yl)isoxazole-3-carboxamide] | > 50
Cc1cc(N2CCC(NC(=O)c3cc(C4CC4)on3)C2=O)n(C)n1 (centres unmarked) [compound 6, 5-cyclopropyl-N-(1-(1,3-dimethyl-1H-pyrazol-5-yl)-2-oxopyrrolidin-3-yl)isoxazole-3-carboxamide] | > 50
CN1CCC(NC(=O)c2cc(C3CC3)on2)C1c1ccc(Cl)c(F)c1 (centres unmarked) [compound 7, N-(2-(4-chloro-3-fluorophenyl)-1-methylpyrrolidin-3-yl)-5-cyclo-propylisoxazole-3-carboxamide] | > 50
O=C(NC1CCN(C2CC2)C1c1ccc(F)c(F)c1)c1cc(C2CC2)on1 (centres unmarked) [compound 8, 5-cyclopropyl-N-(1-cyclopropyl-2-(3,4-difluoro-phenyl)pyrrolidin-3-yl)isoxazole-3-carboxamide] | > 50
CN1CCC(NC(=O)c2cc(C3CC3)on2)C1c1ccc(F)c(F)c1 (centres unmarked) [compound 9, 5-cyclopropyl-N-(2-(3,4-difluorophenyl)-1-methylpyrrolidin-3-yl)isoxazole-3-carboxamide] | > 50
CC1CC(NC(=O)c2cc(C3CC3)on2)CN1c1ccccc1 (centres unmarked) [compound 10, 5-cyclopropyl-N-(5-methyl-1-phenylpyrrolidin-3-yl)isoxazole-3-carboxamide] | > 50
CC1CC(NC(=O)c2cc(C3CC3)on2)C(=O)N1c1ccccc1 (centres unmarked) [compound 11, 5-cyclopropyl-N-(5-methyl-2-oxo-1-phenylpyrrolidin-3-yl)isoxazole-3-carboxamide] | > 50
CC(C)N1CCC(NC(=O)c2cc(C3CC3)on2)C1c1ccc(F)c(F)c1 (centres unmarked) [compound 12, 5-cyclopropyl-N-(2-(3,4-difluorophenyl)-1-isopropylpyrrolidin-3-yl)isoxazole-3-carboxamide] | > 50
CN1CCC(NC(=O)c2cc(C3CC3)on2)C1c1ccc(F)cc1 (centres unmarked) [compound 13, 5-cyclopropyl-N-(2-(4-fluorophenyl)-1-methylpyrrolidin-3-yl)isoxazole-3-carboxamide] | > 50
CN1C(=O)CC(NC(=O)c2cc(C3CC3)on2)C1c1ccc(F)cc1 (centres unmarked) [compound 14, 5-cyclopropyl-N-(2-(4-fluorophenyl)-1-methyl-5-oxopyrrolidin-3-yl)isoxazole-3-carboxamide] | > 50

SMILES | IC50 [µM]
Cn1ccc(N2CCC(NC(=O)c3cc(C4CC4)on3)C2=O)n1 (centres unmarked) [compound 15, 5-cyclopropyl-N-(1-(1-methyl-1H-pyrazol-3-yl)-2-oxopyrrolidin-3-yl)isoxazole-3-carboxamide] | > 50
COc1cccc(C2C(NC(=O)c3cc(C4CC4)on3)CCN2C2CC2)c1 (centres unmarked) [compound 16, 5-cyclopropyl-N-(1-cyclopropyl-2-(3-methoxy-phenyl)pyrrolidin-3-yl)isoxazole-3-carboxamide] | > 50
CC1CC(NC(=O)c2cc(C3CC3)on2)CN1Cc1ccccc1 (centres unmarked) [compound 21, N-(1-benzyl-5-methylpyrrolidin-3-yl)-5-cyclopropyl-isoxazole-3-carboxamide] | 44.5
CC1CC(NC(=O)c2cc(C3CC3)on2)CN1C1CC1 (centres unmarked) [compound 22, 5-cyclopropyl-N-(1-cyclopropyl-5-methylpyrrolidin-3-yl)isoxazole-3-carboxamide] | > 50
CC1CN(C2CC2)CC1NC(=O)c1cc(C2CC2)on1 (centres unmarked) [compound 23, 5-cyclopropyl-N-(1-cyclopropyl-4-methylpyrrolidin-3-yl)isoxazole-3-carboxamide] | 5.18
CC(c1ccccc1)N1CCC(NC(=O)c2cc(C3CC3)on2)C1 (centres unmarked) [compound 24, 5-cyclopropyl-N-(1-(1-phenylethyl)pyrrolidin-3-yl)isoxazole-3-carboxamide] | > 50
O=C(NC1CC(=O)N(c2ccccc2)C1)c1cc(C2CC2)on1 (centres unmarked) [compound 25, 5-cyclopropyl-N-(5-oxo-1-phenylpyrrolidin-3-yl)isoxazole-3-carboxamide] | > 50
O=C(NC1CC(=O)N(Cc2ccccc2)C1)c1cc(C2CC2)on1 (centres unmarked) [compound 26, N-(1-benzyl-5-oxopyrrolidin-3-yl)-5-cyclopropylisoxazole-3-carboxamide] | > 50
O=C(NC1CCN(Cc2ccccc2)C1=O)c1cc(C2CC2)on1 (centres unmarked) [compound 27, N-(1-benzyl-2-oxopyrrolidin-3-yl)-5-cyclopropylisoxazole-3-carboxamide] | > 50
O=C(NC1CCN(c2ccccc2)C1=O)c1cc(C2CC2)on1 (centres unmarked) [compound 28, 5-cyclopropyl-N-(2-oxo-1-phenyl-pyrrolidin-3-yl)isoxazole-3-carboxamide] | > 50
CN1CCC(NC(=O)c2cc(C3CC3)on2)C1 (centres unmarked) [compound 29, 5-cyclopropyl-N-(1-methylpyrrolidin-3-yl)isoxazole-3-carboxamide] | > 50
NCCCC(=O)N1CC[C@@H](NC(=O)c2cc(C3CC3)on2)C1 [compound 30, (R)-N-(1-(4-amino-butanoyl)pyrrolidin-3-yl)-5-cyclopropyl-isoxazole-3-carboxamide] | > 50
N[C@H]1CC[C@H](C(=O)N2CC[C@@H](NC(=O)c3cc(C4CC4)on3)C2)CC1 [compound 31, N-((R)-1-((1r,4r)-4-aminocyclohexane-1-carbonyl)pyrrolidin-3-yl)-5-cyclopropyl-isoxazole-3-carboxamide] | > 50
NCCCC(=O)N1CC[C@H](NC(=O)c2cc(C3CC3)on2)C1 [compound 32, (S)-N-(1-(4-amino-butanoyl)pyrrolidin-3-yl)-5-cyclopropyl-isoxazole-3-carboxamide] | > 50
N[C@H]1CC[C@H](C(=O)N2CC[C@H](NC(=O)c3cc(C4CC4)on3)C2)CC1 [compound 33, N-((S)-1-((1r,4s)-4-aminocyclohexane-1-carbonyl)pyrrolidin-3-yl)-5-cyclopropyl-isoxazole-3-carboxamide] | > 50
NCCCS(=O)(=O)N1CC[C@@H](NC(=O)c2cc(C3CC3)on2)C1 [compound 34, (R)-N-(1-((3-amino-propyl)sulfonyl)pyrrolidin-3-yl)-5-cyclopropyl-isoxazole-3-carboxamide] | > 50
NCCCS(=O)(=O)N1CC[C@H](NC(=O)c2cc(C3CC3)on2)C1 [compound 35, (S)-N-(1-((3-amino-propyl)sulfonyl)pyrrolidin-3-yl)-5-cyclopropyl-isoxazole-3-carboxamide] | > 50
